# Laboratory results from patent US5362738A, “Tricyclic pyridone derivatives” (Hoffmann-La Roche Inc., priority 1990, dated 1994).
# How the values were obtained:
# [1] = acute toxicity (LD50), single oral administration to mice; conditions: mouse, in vivo, p.o.
# Method: (§1) In this animal experiment the compound under investigation is administered orally to mice and 30 minutes later there are administered intraperitoneally 120 mg/kg of pentetrazole, which causes emprosthotonus and tonic stretchings of the fore and/or hind limbs in unprotected animals 1-4 minutes after the injection. 10 experimental animals are used per dosage of test substance. After counting the protected experimental animals the ED50 is determined according to the Probit method. The ED50 is that dosage which protects 50% of the experimental animals from the spasmodic seizures caused by pentetrazole. The results which have been obtained with representative members of the class of compound defined by formula I in the experiment described previously are compiled in the following Table. Moreover, the Table contains data concerning the acute toxicity (LD50) of some of these compounds in mg/kg in the case of single oral administration to mice.
# [2] = test system: spasmodic seizures caused by pentetrazole; test: antipentetrazole test (oral, mice); type: in vivo; conditions: Mus musculus, 0.5 h, p.o., 120 mg/kg pentetrazole i.p. 30 minutes later, 10 animals per dosage, Probit method, dosage protecting 50% of animals
# Method: As mentioned above, the compounds of formula I have valuable pharmacological properties. In particular, they display pronounced muscle relaxant, sedative-hypnotic, anticonvulsive and/or anxiolytic properties and have a low toxicity.
# as §1
SMILES,LD50 [1] [mg/kg],ED50 [2] [mg/kg]
"O=C(c1cc(-c2ccccc2)c(=O)n2c1-c1sccc1C2)N1CCOCC1 [H, Morpholino, --S--CH=CH--, 4-[(4,6-dihydro-6-oxo-7-phenylthieno[2',3':3,4]pyrrolo[1,2-a]pyridin-9-yl)carbonyl]-morpholine]",5000,1.32
"COC[C@H]1CCCN1C(=O)c1cc(-c2ccccc2)c(=O)n2c1-c1ccccc1C2 [H, (R)-2-MeOCH2 --Py--, --CH=CH--CH=CH--, (R)-1-[[4,6-dihydro-4-oxo-3-phenylpyrido[2,1-a]isoindol-1-yl]carbonyl]-2-(methoxymethyl)pyrrolidine]",1500,2.3
"COC1CN(C(=O)c2cc(-c3ccccc3)c(=O)n3c2-c2ccccc2C3)C1 [H, 3-MeO-azetidino, --CH=CH--CH=CH--, 1-[(4,6-dihydro-4-oxo-3-phenylpyrido[2,1-a]isoindol-1-yl)carbon-yl]-3-methoxyazetidine]",–,0.39
"CO[C@H]1CCN(C(=O)c2cc(-c3ccccc3)c(=O)n3c2-c2sccc2C3)C1 [H, 3-MeO-pyrrolidino, --S--CH=CH--, (S)-1-[(4,6-dihydro-6-oxo-7-phenylthieno[2',3':3,4]pyrrolo[1,2-a]-pyridin-9-yl)carbonyl]-3-methoxypyrrolidine]",375,1.7
"COC1CN(C(=O)c2cc(-c3ccccc3)c(=O)n3c2-c2c(Cl)cccc2C3)C1 [H, 3-MeO-azetidino, --CCl=CH--CH=CH--, 1-[(10-chloro-4,6-dihydro-4-oxo-3-phenylpyrido[2,1-a]isoindol-1-yl)carbonyl]-3-methoxyazetidine]",–,2.2
"COC1CN(C(=O)c2cc(-c3ccccc3)c(=O)n3c2-c2sccc2C3)C1 [H, 3-MeO-azetidino, --S--CH=CH--, 1-[(4,6-dihydro-6-oxo-7-phenylthieno[2',3':3,4]pyrrolo[1,2-a]pyridin-9-yl)-carbonyl]-3-methoxyazetidine]",2500,2.1
"CN(C)C(=O)c1cc(-c2ccccc2)c(=O)n2c1-c1ccccc1C2 [H, Me2 N--, --CH=CH--CH=CH--, N,N-dimethyl-4,6-dihydro-4-oxo-3-phenylpyrido[2,1-a]isoindole-1-carboxamide]",375,0.73
"COC[C@H]1CCCN1C(=O)c1cc(-c2ccccc2)c(=O)n2c1-c1sccc1C2 [H, (R)-2-MeOCH2 --Py--, --S--CH=CH--, (R)-1-[(4,6-dihydro-6-oxo-7-phenylthieno[2',3':3,4]pyrrolo[1,2-a]pyridin-9-yl)carbonyl]-2-(methoxymethyl)pyrrolidine]",625,0.76
"CN1CCN(C(=O)c2cc(-c3ccccc3)c(=O)n3c2-c2ccccc2C3)CC1.Cl [H, 4-Me-piperazino, --CH=CH--CH=CH--, 1-[(4,6-dihydro-4-oxo-3-phenylpyrido[2,1-a]isoindol-1-yl)carbonyl]-4-methyl-piperazine hydrochloride]",312,5.7
